These results are taken from US7317014B2, “Bio-active pyrimidine molecules” (Orchid Research Laboratories, Ltd., priority 2002, dated 2008).

For series [1], the system named is IL-6. The series can be described thus: IL-6 production from LPS-stimulated human monocytes (ELISA). The following applies: Monocyte; for inhibition at 1 µM: Conc. 1 μM; for inhibition at 10 µM: Conc. 10 μM. It counts as cell-based. How it is done: Interleukin-6(IL-6) This assay determines the effect of test compounds on the production of IL-6 from human monocytes. Compounds are tested for their ability to downregulate the production of IL-6 in activated monocytes. Test compounds were incubated for three, six and twenty four hours with human monocytes. Lipopolysaccharide was used to stimulate the monocytes. The level of Interleukin-6 is quantitated using Enzyme-Linked Immunosorbent assay performed in a 96 well format.
For orientation: In an ELISA, binding on a coated surface is turned into a signal by an enzyme label.

Series [2] has as its system Male Wistar rats. Put plainly: Rat carrageenan paw edema test. To be noted: oral. It counts as in vivo.
Series [3] has as its system SF-268. Put plainly: DTP human tumor cell line one-dose prescreen, SF-268. It counts as cell-based. To be noted: Concentration (100 μm), CNS SF-268, test/control (T/C). The protocol:
(§1) The current assay utilizes a 384 well plate format and fluorescent staining technologies resulting in greater screening capacity for testing of synthetic samples. Cell Lines The cell lines of the cancer screening panel are grown in RPMI 1640 medium containing 5% fetal bovine serum and 2 mM L-glutamine. For a typical screening experiment, cells are inoculated into 96 well microtiter plates in 100 μL. After cell inoculation, the microtiter plates are incubated at 37° C., 5% CO2, 95% air and 100% relative humidity for 24 h prior to addition of experimental drugs. The cells are plated a densities of 5000 cells/well (MCF7), 1000 cells/well (NCI-H460), and 7500 cells/well (SF-268) to allow for varying doubling time of the cell lines. Each plate contains all three cell lines, a series of dilutions of standard agents, total kill wells and appropriate controls. Plates are incubated under standard conditions for 24 hours prior to addition of experimental compounds or extracts. Addition of Experimental Agents (Pure Compounds) […] Two standard drugs, meaning that their activities against the cell lines are well documented, are tested against each cell line: NSC 19893 (5-FU) and NSC 123127 (Adriamycin). Endpoint Measurement After compound addition, plates are incubated at standard conditions for ?hours, 10 μl/well Alamar Blue is added and the plates are incubated for an additional 4 hours. Fluorescence is measured using an excitation wavelength of 530 nm and an emission wavelength of 590 nm. Calculation of Percent Test Cell Growth/Control (Untreated) Cell Growth (T/C) Calculation of Percent Test Cell Growth/Control (Untreated) Cell Growth (T/C) Percent growth is calculated on a plate-by-plate basis for test wells relative to control wells. Percent Growth is expressed as the ratio of fluorescence of the test well to the average fluorescence of the control wells ×100.

For series [4], the system named is MCF7. The series can be described thus: DTP human tumor cell line one-dose prescreen, MCF7. It counts as cell-based. To be noted: Concentration (100 μm), Breast MCF7, test/control (T/C). How it is done: as §1
The test system of series [5] is NCI-H460. The series can be described thus: DTP human tumor cell line one-dose prescreen, NCI-H460. The following applies: Concentration (100 μm), Lung NCI-H460, test/control (T/C). It is filed as cell-based. How it is done: as §1

Consider `Cc1ccc(-c2nc(Cl)nc(Cl)c2-c2ccc(Cl)cc2)cc1`, for which the melting point (as a rule, the temperature of the solid-liquid transition) was in the range of 223 to 225 °C.
Same read-out and setting: in the case of `[N-]=[N+]=Nc1nc(C(F)(F)F)nc(-c2ccccc2)c1-c1ccccc1` it was 126 to 128 °C.
Same read-out and setting: for `CS(=O)(=O)c1ccc(-c2nc(C(F)(F)F)nc(N=[N+]=[N-])c2-c2ccccc2)cc1` the value was 172 to 175 °C; for `CS(=O)(=O)c1ccc(-c2nc(C(F)(F)F)nc(N=[N+]=[N-])c2-c2ccc(Cl)cc2)cc1`, 317 to 320 °C; for `CS(=O)(=O)c1ccc(-c2nc(C(F)(F)F)nc(N=[N+]=[N-])c2-c2ccc(F)cc2)cc1`, 285 to 288 °C.
Same read-out and setting: for `NNc1nc(C(F)(F)F)nc(-c2ccc(F)cc2)c1-c1ccccc1` the value was 175 to 177 °C.
As to `CS(=O)(=O)c1ccc(-c2nc(C(F)(F)F)nc(NN)c2-c2ccc(Cl)cc2)cc1`, the melting point lay in the range of 266 to 269 °C.
Still for that read-out and setting: for `CS(=O)(=O)c1ccc(-c2nc(C(F)(F)F)nc(NN)c2-c2ccc(F)cc2)cc1` the value was 286 to 290 °C; for `CSc1ccc(-c2c(NN)nc(Cl)nc2-c2ccccc2)cc1`, 272 to 274 °C; for `Fc1ccc(-c2nc(C(F)(F)F)nc(Cl)c2-c2ccccc2)cc1`, 67 to 68 °C.
Still for that read-out and setting: for `CSc1ccc(-c2c(NN)nc(NN)nc2-c2ccccc2)cc1` the value was 207 to 210 °C.
In turn, `CC(=O)NNc1nc(C(F)(F)F)nc(-c2ccccc2)c1-c1ccccc1` yielded a melting point of 113 to 116 °C.
With `CC(=O)NNc1nc(C(F)(F)F)nc(-c2ccc(F)cc2)c1-c1ccccc1`, the melting point was 149 to 153 °C.
Still for that read-out and setting: in the case of `CC(=O)NNc1nc(C(F)(F)F)nc(-c2ccc(S(C)(=O)=O)cc2)c1-c1ccccc1` it was 265 to 268 °C; in that of `CC(=O)NNc1nc(C(F)(F)F)nc(-c2ccc(S(C)(=O)=O)cc2)c1-c1ccc(Cl)cc1`, 254 to 256 °C.
Same read-out and setting: in the case of `CS(=O)(=O)c1ccc(-c2nc(C(F)(F)F)nc(NNC(=O)C(F)(F)F)c2-c2ccc(Cl)cc2)cc1` it was 307 to 309 °C; in that of `O=c1nc(Cl)cc(-c2ccccc2)n1-c1ccccc1`, 141 to 143 °C.
In the case of `FC(F)(F)c1nc(Cl)c(-c2ccccc2)c(-c2ccccc2)n1` [Example 1, 4-chloro-5,6-diphenyl-2-(trifluoromethyl)pyrimidine], the melting point fell in the range of 105 to 107 °C. Also, the inhibition (as a rule, the relative decrease from the control value, in per cent) at 1 µM in series [1] is 62.5%.
In the same order, the values of `Cc1ccc(-c2nc(C(F)(F)F)nc(Cl)c2-c2ccccc2)cc1` [Example 2, 4-chloro-6-(4-methylphenyl)-5-phenyl-2-(trifluoromethyl)pyrimidine] are 97 to 100 °C and 62.3%.
Regarding `Clc1nc(Cl)c(-c2ccccc2)c(-c2ccccc2)n1` [Example 7, 2,4-dichloro-5,6-diphenylpyrimidine], the melting point lay within 144 to 146 °C. For the same compound, the “Rat Paw Edema model % Inhibition (10 mg/kg body weight)” value in series [2] is recorded as 60.9%.
In turn, `Cc1ccc(-c2nc(Cl)nc(Cl)c2-c2ccccc2)cc1` [Example 8, 2,4-dichloro-6-(4-methylphenyl)-5-phenylpyrimidine] came in with a melting point of 130 to 132 °C. Also, in series [3], the “Percentage Growth CNS SF-268” value is 6. Moreover, in series [4], the “Percentage Growth Breast MCF7” value was found to be 5. The “Percentage Growth Lung NCI-H460” value in series [5] was 1.
As to `Clc1ccc(-c2c(Cl)nc(Cl)nc2-c2ccccc2)cc1` [Example 10, 5-(4-chlorophenyl)-2,4-dichloro-6-phenylpyrimidine], the melting point fell in the range of 123 to 125 °C. Besides, the “Percentage Growth CNS SF-268” value in series [3] amounted to 0. In series [4], the “Percentage Growth Breast MCF7” value is recorded as 0. Also, in series [5], the “Percentage Growth Lung NCI-H460” value was found to be 0.
The compound `CSc1ccc(-c2c(Cl)nc(Cl)nc2-c2ccccc2)cc1` [Example 12, 2,4-dichloro-5-[4-(methylthio)phenyl]-6-phenylpyrimidine] showed a melting point of 88 to 90 °C. Further, in series [3], the “Percentage Growth CNS SF-268” value was found to be 4. Besides, the “Percentage Growth Breast MCF7” value in series [4] is given as −1. For the same compound, the “Percentage Growth Lung NCI-H460” value in series [5] was 0.
In turn, `NNc1nc(C(F)(F)F)nc(-c2ccccc2)c1-c1ccccc1` [Example 21, 4-hydrazino-5,6-diphenyl-2-(trifluoromethyl)pyrimidine] displayed a melting point of 182 to 186 °C. The compound also yielded an inhibition at 1 µM in series [1] of 67.5%.
In the same order, the values of `Cc1ccc(-c2nc(C(F)(F)F)nc(NN)c2-c2ccccc2)cc1` [Example 22, 4-hydrazino-6-(4-methylphenyl)-5-phenyl-2-(trifluoromethyl)pyrimidine] are 188 to 191 °C and 52.3%.
Consider `CS(=O)(=O)c1ccc(-c2nc(C(F)(F)F)nc(NN)c2-c2ccccc2)cc1` [Example 24, 4-hydrazino-6-[4-(methylsulfonyl)phenyl]-5-phenyl-2-(trifluoromethyl)pyrimidine], for which the melting point lay in the range of 272 to 275 °C. The same compound registered an inhibition at 10 µM in series [1] of 66%.
In the case of `CC(=O)NNc1nc(C(F)(F)F)nc(-c2ccc(C)cc2)c1-c1ccccc1` [Example 32, N′-[6-(4-methylphenyl)-5-phenyl-2-(trifluoromethyl)pyrimidin-4-yl]acetohydrazide], the melting point lay in the range of 147 to 152 °C. In series [1], this compound gave an inhibition at 10 µM of 53.3%.
